{"source": "patent US20090098145A1", "about": "“METHODS AND COMPOSITIONS FOR TREATING OPHTHALMIC CONDITIONS VIA MODULATION OF MEGALIN ACTIVITY” (Sirion Therapeutics, Inc., priority 2006, published 2009)", "key": {"megalin [1]": {"test_system": "megalin", "assay": "Megalin protein level in mouse eyecup membrane fractions by immunoblot", "type": "in vivo", "conditions": "MPR-treated mice compared to age-matched wild-type and abcr knockout mice; two immunoreactive bands", "protocol": "FIG. 12. Illustrates megalin protein level in the eye cup from mice with different serum RBP-retinol levels. LDL receptors function to uptake RBP-retinol into RPE. RBP knockout mouse and MPR-treated mouse have lower serum RBP-retinol level. Expression of megalin in eyecup tissues from these mice were examined by immunoblot. Membrane fractions of mouse eyecups were prepared from wild-type mouse (WT), RBP knockout mouse (RBP−/−), ABCR null (abcr−/−) and MPR-treated mice (MPR). Two immunoreactive bands were detected (indicated by white arrows in the figure).\nPreparation of Megalin-enriched Membranes from Whole Tissue—Sucrose density centrifugation was used to separate the membranous constituents from kidney, retina and RPE-eyecup (RPE plus choroid and sclera) samples. Following dissection, tissue samples were homogenized in a buffer containing 0.25 M sucrose (pH 7.5). The homogenates were centrifuged at 27,000×g for 20 min. The supernatant fraction was discarded and the resulting pellet (P1) was homogenized in a buffer containing 0.5% CHAPS. […]\nImmunoblot Analyses—Protein samples which were used for immunoblot analyses were resuspended in SDS loading buffer. […] The membrane was washed four times, developed with ChemiGlow West Substrate (Alpha Innotech, San Leandro, Calif.) and then visualized by a luminescence imager (Fluor Chem from Alpha Innotech)."}, "[2]": {"conditions": "in vivo; cited from earlier work"}, "human RPE cells [3]": {"test_system": "human RPE cells", "assay": "Uptake of RBP-retinol in human RPE cell cultures after antibody or RAP blocking (HPLC of intracellular atRE and atROL)", "type": "cell-based", "conditions": "RAP added to basal chamber, 2 hours at 4° C.; RBP-retinol (10 μM) in basal media; vs pre-immune rabbit IgG"}, "human RPE cells [4]": {"test_system": "human RPE cells", "assay": "Uptake of Alexa Fluor 488-labelled RBP* and IRBP* by RPE cells with and without RAP (fluorescence microscopy, retinyl esters by HPLC)", "type": "cell-based", "protocol": "FIG. 13. Illustrates uptake of RBP- and IRBP-retinol into human RPE. Holo-RBP and IRBP were covalently labeled with a fluorescent probe (Alexa Fluor 488). The labeled proteins (RBP* and IRBP*) were added to either the basal (RBP*) or apical (IRBP*) compartments of the RPE cell culture system. Following a 1 hour incubation at 37° C., the media were removed, the cells were extensively washed and the tissues samples analyzed by fluorescence microscopy.\nFIG. 14. Illustrates that RAP inhibits basal uptake of RBP-retinol and apical uptake of IRBP-retinol. Uptake of IRBP* and RBP* by RPE cells was monitored before (panels A and B, respectively) and after (panels D and E, respectively) treatment with the LDL receptor antagonist, RAP. […] To ensure that retinol was also taken into the RPE cells, the cells were washed, collected and analyzed for retinoid content by HPLC. Uptake of retinol into RPE cells results in rapid esterification resulting in retinyl ester formation."}, "LRP": {"molecular_target": "LRP (Homo sapiens, UniProt Q07954)", "conditions": "cited from earlier work"}, "gp330": {"molecular_target": "gp330 (Rattus norvegicus, UniProt P98158)", "conditions": "cited from earlier work"}, "VLDL receptor": {"molecular_target": "VLDL receptor (Homo sapiens, UniProt P98155)", "conditions": "cited from earlier work"}, "LDL receptor": {"molecular_target": "LDL receptor (Homo sapiens, UniProt P01130)", "conditions": "cited from earlier work"}, "megalin [5]": {"molecular_target": "megalin (Homo sapiens, UniProt P98164)", "sequence (P98164 26-4655, species assumed)": "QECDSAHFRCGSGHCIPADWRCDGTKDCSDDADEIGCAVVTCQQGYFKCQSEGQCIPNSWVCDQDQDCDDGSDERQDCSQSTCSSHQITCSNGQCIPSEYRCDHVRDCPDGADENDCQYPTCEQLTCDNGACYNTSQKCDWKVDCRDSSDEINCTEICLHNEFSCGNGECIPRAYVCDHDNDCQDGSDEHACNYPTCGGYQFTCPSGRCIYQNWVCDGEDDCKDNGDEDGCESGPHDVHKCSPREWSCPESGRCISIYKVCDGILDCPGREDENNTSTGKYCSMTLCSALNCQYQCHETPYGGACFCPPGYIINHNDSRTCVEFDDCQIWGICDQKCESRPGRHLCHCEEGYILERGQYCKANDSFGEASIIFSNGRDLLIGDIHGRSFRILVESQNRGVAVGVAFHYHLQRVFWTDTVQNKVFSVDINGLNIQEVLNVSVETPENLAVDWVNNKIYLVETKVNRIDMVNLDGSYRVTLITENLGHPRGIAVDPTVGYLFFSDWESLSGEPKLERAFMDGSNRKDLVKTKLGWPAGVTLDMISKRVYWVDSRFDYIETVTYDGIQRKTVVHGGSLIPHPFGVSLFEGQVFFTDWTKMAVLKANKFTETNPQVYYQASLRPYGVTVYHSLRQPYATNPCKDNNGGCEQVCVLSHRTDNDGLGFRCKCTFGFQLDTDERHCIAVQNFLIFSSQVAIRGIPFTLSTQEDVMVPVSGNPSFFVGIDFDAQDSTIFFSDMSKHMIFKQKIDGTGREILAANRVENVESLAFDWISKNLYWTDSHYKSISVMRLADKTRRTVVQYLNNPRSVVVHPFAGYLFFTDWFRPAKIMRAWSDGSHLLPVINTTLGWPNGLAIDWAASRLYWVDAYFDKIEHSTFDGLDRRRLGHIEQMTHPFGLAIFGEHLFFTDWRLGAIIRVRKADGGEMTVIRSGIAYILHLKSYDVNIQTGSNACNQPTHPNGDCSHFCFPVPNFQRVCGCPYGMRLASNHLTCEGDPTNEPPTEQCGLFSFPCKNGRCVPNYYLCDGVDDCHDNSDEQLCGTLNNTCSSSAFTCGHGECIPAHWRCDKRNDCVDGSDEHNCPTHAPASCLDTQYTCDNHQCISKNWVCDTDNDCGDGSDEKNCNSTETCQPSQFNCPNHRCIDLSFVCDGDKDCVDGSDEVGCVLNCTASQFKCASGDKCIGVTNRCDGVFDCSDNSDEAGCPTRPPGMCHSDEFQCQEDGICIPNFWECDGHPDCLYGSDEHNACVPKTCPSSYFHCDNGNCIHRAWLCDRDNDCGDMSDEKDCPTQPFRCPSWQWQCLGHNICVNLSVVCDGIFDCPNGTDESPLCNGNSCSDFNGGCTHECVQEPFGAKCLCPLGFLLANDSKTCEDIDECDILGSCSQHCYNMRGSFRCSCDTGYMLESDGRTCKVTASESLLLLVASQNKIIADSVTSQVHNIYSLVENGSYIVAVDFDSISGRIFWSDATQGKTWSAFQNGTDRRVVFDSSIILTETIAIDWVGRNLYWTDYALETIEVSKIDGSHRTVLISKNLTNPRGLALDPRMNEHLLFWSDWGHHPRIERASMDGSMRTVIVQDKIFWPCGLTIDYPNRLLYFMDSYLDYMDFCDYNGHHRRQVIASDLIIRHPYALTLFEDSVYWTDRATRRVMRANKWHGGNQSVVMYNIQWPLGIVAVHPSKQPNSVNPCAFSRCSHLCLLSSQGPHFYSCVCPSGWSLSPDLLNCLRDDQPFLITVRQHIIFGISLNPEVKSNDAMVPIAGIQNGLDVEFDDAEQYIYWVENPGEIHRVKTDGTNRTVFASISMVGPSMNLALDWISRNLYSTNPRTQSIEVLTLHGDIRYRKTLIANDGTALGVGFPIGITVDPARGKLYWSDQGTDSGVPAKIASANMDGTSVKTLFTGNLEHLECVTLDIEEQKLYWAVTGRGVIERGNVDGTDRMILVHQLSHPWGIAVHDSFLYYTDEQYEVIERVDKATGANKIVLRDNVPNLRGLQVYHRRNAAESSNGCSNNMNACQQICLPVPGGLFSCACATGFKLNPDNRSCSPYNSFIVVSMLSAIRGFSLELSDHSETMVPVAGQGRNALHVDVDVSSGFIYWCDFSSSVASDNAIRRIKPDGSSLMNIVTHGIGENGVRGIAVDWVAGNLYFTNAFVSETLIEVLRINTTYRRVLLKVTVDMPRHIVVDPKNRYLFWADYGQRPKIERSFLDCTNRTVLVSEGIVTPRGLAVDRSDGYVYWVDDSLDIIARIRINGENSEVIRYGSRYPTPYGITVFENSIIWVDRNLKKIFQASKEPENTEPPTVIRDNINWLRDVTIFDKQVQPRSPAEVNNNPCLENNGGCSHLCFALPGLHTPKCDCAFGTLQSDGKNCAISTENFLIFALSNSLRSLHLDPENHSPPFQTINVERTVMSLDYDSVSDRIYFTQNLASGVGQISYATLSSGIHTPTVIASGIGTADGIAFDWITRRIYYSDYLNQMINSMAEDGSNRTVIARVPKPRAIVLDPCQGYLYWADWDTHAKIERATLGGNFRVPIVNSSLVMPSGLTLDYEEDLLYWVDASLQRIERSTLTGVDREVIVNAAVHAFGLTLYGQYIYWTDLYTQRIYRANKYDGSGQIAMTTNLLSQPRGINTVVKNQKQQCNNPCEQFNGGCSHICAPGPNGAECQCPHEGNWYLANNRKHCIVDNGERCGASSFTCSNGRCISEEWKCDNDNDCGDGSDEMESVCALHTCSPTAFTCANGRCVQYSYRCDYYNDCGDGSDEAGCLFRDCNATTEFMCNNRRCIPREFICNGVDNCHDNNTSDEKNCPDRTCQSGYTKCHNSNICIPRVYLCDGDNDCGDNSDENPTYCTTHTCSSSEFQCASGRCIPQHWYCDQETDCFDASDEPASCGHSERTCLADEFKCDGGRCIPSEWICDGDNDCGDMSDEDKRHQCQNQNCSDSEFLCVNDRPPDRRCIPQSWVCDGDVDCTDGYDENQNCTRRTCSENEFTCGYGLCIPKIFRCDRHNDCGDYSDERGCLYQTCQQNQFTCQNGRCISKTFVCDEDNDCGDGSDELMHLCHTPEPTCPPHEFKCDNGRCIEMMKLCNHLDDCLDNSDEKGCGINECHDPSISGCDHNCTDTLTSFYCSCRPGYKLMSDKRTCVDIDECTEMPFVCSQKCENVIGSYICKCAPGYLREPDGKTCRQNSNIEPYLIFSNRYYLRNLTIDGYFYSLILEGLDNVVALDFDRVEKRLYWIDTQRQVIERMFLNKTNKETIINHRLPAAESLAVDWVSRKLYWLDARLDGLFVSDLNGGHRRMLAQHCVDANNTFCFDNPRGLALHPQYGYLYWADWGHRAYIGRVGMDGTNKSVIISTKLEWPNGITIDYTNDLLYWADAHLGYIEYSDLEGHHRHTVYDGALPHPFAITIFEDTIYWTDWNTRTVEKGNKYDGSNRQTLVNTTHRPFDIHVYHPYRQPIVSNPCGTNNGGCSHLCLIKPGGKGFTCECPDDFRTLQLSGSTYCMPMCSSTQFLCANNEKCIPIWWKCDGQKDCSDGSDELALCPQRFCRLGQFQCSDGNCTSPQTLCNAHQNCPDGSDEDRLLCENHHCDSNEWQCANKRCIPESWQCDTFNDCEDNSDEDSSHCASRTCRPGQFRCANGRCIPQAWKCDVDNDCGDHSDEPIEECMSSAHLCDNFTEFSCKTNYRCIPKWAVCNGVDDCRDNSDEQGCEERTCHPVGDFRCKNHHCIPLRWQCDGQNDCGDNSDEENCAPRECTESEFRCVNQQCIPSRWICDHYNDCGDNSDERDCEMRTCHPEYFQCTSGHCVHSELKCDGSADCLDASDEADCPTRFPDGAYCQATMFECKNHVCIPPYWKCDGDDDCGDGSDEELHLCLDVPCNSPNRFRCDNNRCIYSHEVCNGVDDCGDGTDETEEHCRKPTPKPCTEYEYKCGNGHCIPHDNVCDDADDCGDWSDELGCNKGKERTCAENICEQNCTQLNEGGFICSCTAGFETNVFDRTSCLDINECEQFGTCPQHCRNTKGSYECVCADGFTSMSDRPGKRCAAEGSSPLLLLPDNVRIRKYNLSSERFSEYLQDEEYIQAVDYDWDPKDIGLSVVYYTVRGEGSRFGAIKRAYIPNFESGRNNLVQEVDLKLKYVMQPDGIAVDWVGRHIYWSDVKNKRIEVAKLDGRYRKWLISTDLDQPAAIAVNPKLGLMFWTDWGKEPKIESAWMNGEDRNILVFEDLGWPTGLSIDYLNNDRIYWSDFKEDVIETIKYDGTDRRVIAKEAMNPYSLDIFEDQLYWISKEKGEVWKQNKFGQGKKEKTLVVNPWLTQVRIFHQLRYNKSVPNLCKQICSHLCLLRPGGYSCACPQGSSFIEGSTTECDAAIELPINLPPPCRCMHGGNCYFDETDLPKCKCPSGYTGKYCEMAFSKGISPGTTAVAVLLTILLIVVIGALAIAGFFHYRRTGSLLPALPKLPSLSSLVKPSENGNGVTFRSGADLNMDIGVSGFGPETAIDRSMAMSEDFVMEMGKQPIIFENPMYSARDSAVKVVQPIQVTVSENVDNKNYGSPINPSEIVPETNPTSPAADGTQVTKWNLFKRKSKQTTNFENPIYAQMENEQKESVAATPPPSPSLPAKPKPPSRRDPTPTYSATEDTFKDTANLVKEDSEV", "conditions": "cited from earlier work"}, "[6]": {"molecular_target": "LDL receptors (on human RPE cells)", "assay": "cell-based or functional assay"}, "[7]": {"conditions": "RAP treatment, fluorescence microscopy"}}}
{"molecule": "COc1ccc(NC(=O)\\C=C(C)/C=C/C=C(C)\\C=C\\C2=C(C)CCCC2(C)C)cc1", "note": "(stereo in doubt) [MPR, 4-methoxyphenylretinamide]", "values": [{"measurement": "expression of megalin-immunoreactive proteins in eyecup", "setting": "megalin [1]", "result": "reduced expression"}, {"measurement": "retinol and RBP levels in serum", "setting": "[2]", "result": "reduce"}]}
{"molecule": "RAP: 39 kDa receptor-associated protein, chaperone and universal ligand binding antagonist of LDL receptor gene family members", "values": [{"measurement": "inhibition of RBP-retinol uptake by RAP", "setting": "human RPE cells [3]", "result": 47, "unit": "%"}, {"measurement": "reduction in retinol uptake as measured by retinyl ester content", "setting": "human RPE cells [4]; RAP pre-treatment, retinyl esters by HPLC", "result": "~50", "unit": "%"}, {"measurement": "apical uptake of IRBP*", "setting": "human RPE cells [4]; [7]", "result": "completely suppressed"}, {"measurement": "basal uptake of RBP*", "setting": "human RPE cells [4]; [7]", "result": "completely suppressed"}, {"measurement": "Kd", "setting": "LRP", "result": 4, "unit": "nM"}, {"measurement": "Kd", "setting": "gp330", "result": 8, "unit": "nM"}, {"measurement": "Kd", "setting": "VLDL receptor", "result": 0.7, "unit": "nM"}, {"measurement": "Kd", "setting": "LDL receptor", "result": 500, "unit": "nM"}, {"measurement": "binding sites occupied on the receptor protein megalin", "setting": "megalin [5]", "result": "two"}]}
{"molecule": "gentamicin [reference compound]", "values": [{"measurement": "molecules bound per megalin protein", "setting": "megalin [5]", "result": "60-100"}]}
{"molecule": "receptor-associated protein (RAP) obtained from Oxford Biomedical Research", "values": [{"measurement": "inhibition of basal RBP-retinol uptake in human RPE cultures (HPLC of intracellular atRE and atROL) after RAP pre-treatment", "setting": "[6]", "result": 47, "unit": "%"}, {"measurement": "reduction in retinol uptake as measured by retinyl ester content (HPLC) after RAP pre-treatment", "setting": "[6]", "result": 50, "unit": "%"}]}
